Laboratory results reported in patent EP4162932A1, “ANTIVIRAL HOP CONSTITUENTS” (HHV Hallertauer Hopfenveredelungsgesellschaft mbH, priority 2021, dated 2023).

Tests used:
[1] = system: icSARS-CoV-2-mNG; assay: microbe, parasite or virus in culture; type: cell-based, SARS-CoV-2; conditions: Severe acute respiratory syndrome coronavirus 2, Caco-2, 48 h; read-out: half maximal inhibitory concentration (IC50) on virus replication
[2] = in vitro; conditions: human, Caco-2
[3] = target: SARS-CoV-2 PLpro (Severe acute respiratory syndrome coronavirus 2, UniProt P0DTD1); assay: PLpro kinetic inhibition assay, cleavage of AMC peptide mimicking the C-terminus of human ISG15; type: biochemical

SMILES | IC50 [1] [µM] | CC50 [2] [µM] | IC50 [3] [µM]
CC(C)=CCc1c(O)cc(O)c2c1O[C@H](c1ccc(O)cc1)CC2=O [8-PN, 8-prenylnaringenin] | 23 | 54.9 | 119 ± 13
COc1cc(O)c(CC=C(C)C)c(O)c1C(=O)/C=C/c1ccc(O)cc1 [XN, xanthohumol] | 3.28 | 12.3 | –
CC(C)=CCc1c(O)cc2c(c1O)C(=O)C[C@@H](c1ccc(O)cc1)O2 [6-PN, 6-prenylnaringenin] | 7.26 | 22.6 | 131 ± 10
COc1cc(O)c(CC=C(C)C)c2c1C(=O)CC(c1ccc(O)cc1)O2 (centres unmarked) [IX, isoxanthohumol] | 20.1 | 19.5 | 59 ± 15
